The values that follow come from ChEMBL document CHEMBL5550144, “Lysine-homologue substitution: Impact on antimicrobial activity and proteolytic stability of cationic stapled heptapeptides” (Bioorg Med Chem, 2024).

For one data set, the system named is Staphylococcus aureus. In words: Antimicrobial activity against Staphylococcus aureus ATCC 6538p assessed as inhibition of bacterial growth measured for 24 hrs by standard broth microdilution method. In kind it is functional.
A further data set concerns Salmonella typhimurium. In words: Antimicrobial activity against Salmonella enterica subsp. enterica serovar Typhimurium ATCC 14028 assessed as inhibition of bacterial growth measured for 24 hrs by standard broth microdilution method. In kind it is functional. (In general: Dilution methods test growth across graded concentrations, often in twofold steps.)
For a further data set, the system named is Shigella dysenteriae. As to the kind of experiment: Antimicrobial activity against Shigella dysenteriae ATCC 9752 assessed as inhibition of bacterial growth measured for 24 hrs by standard broth microdilution method. It is filed as functional.
Data set [1] can be described thus: Hemolytic activity in human Red blood cells assessed as hemolysis rate at 24 uM incubated for 30 mins by absorbance based analysis relative to control. In kind it is toxicity, cell-based, Erythrocyte. The note with it: read-out: Activity.
The test system of data set [2] is Staphylococcus epidermidis. In words: Antimicrobial activity against Staphylococcus epidermidis ATCC 12228 assessed as inhibition of bacterial growth measured for 24 hrs by standard broth microdilution method. In kind it is functional.
In a further data set the test system is Klebsiella pneumoniae. As to the kind of experiment: Antimicrobial activity against Klebsiella pneumoniae ATCC 10031 assessed as inhibition of bacterial growth measured for 24 hrs by standard broth microdilution method. It is filed as functional.
Another data set deals with Escherichia coli. In words: Antimicrobial activity against Escherichia coli ATCC 25922 assessed as inhibition of bacterial growth measured for 24 hrs by standard broth microdilution method. It is filed as functional.
Another data set has as its system Pseudomonas aeruginosa. As to the kind of experiment: Antimicrobial activity against Pseudomonas aeruginosa ATCC 27853 assessed as inhibition of bacterial growth measured for 24 hrs by standard broth microdilution method. It is filed as functional.
For data set [3], the target named is T1, Trypsin (Homo sapiens, UniProt P07477+P07478+P35030). In words: Proteolytic stability of compound assessed as trypsin (unknown origin) mediated drug degradation measured at 10 to 60 mins by HPLC analysis. It is filed as ADME, protein assay. The settings on record: time 10-60 min, read-out: Drug degradation.
In data set [4] the target is T1, Trypsin. In words: Proteolytic stability of compound assessed as trypsin (unknown origin) mediated drug degradation by measuring half life measured at 10 to 60 mins by HPLC analysis. In kind it is ADME, protein assay. The note with it: time 10-60 min.
Data set [5] has as its target T1, Trypsin. As to the kind of experiment: Proteolytic stability of compound assessed as trypsin (unknown origin) mediated drug hydrolysis measured at 10 to 60 mins by HPLC analysis. It is filed as ADME, protein assay. The settings on record: time 10-60 min, read-out: Drug degradation.
Data set [6] addresses T1, Trypsin. As to the kind of experiment: Proteolytic stability of compound assessed as trypsin (unknown origin) mediated drug degradation by measuring parent compound remaining measured at 10 to 60 mins by HPLC analysis. The note with it: time 10-60 min. In kind it is ADME, protein assay.

Converted amounts (≈) assume the structure as drawn. Positions of bridges follow the written chain, without caps; N, C: chain ends. Non-standard residues stand in square brackets, D forms with d. Residues, ends and D or L forms follow the SMILES beside them. S5 = C=CCCC[C@](C)(N)C(=O)O; Nle = CCCC[C@H](N)C(=O)O; Orn = NCCC[C@H](N)C(=O)O; Dab = NCC[C@H](N)C(=O)O; Dap = NC[C@H](N)C(=O)O

Usually MIC stands for the least concentration at which growth counts as inhibited. As to `C[C@@]1(C(=O)N[C@@H](CCCCN)C(N)=O)CCC/C=C/CCC[C@](C)(NC(=O)[C@@H](N)CCCCN)C(=O)N[C@@H](Cc2c[nH]c3ccccc23)C(=O)N[C@@H](CCCCN)C(=O)N[C@@H](CCC(=O)O)C(=O)N1` (H-K[S5]WKE[S5]K-NH2; staple (E) 2-6), the MIC (in the data set on Staphylococcus aureus; in the data set with Salmonella typhimurium; with Shigella dysenteriae; in data set [2]; in the data set on Klebsiella pneumoniae; in the data set on Escherichia coli) was greater than 100 µg/mL throughout. Moreover, the MIC with Pseudomonas aeruginosa is greater than 100 µg/mL. Moreover, the hemolysis at 0.5 h, 24 µM in data set [1] is less than 0.1%.

For orientation: half-life means the time needed for the level to fall by half in the phase considered. In the case of `CCCC[C@@H]1NC(=O)[C@H](CCCCN)NC(=O)[C@H](Cc2c[nH]c3ccccc23)NC(=O)[C@@](C)(NC(=O)[C@@H](N)CCCCN)CCC/C=C/CCC[C@@](C)(C(=O)N[C@@H](CCCCN)C(N)=O)NC1=O` (H-K[S5]WK[Nle][S5]K-NH2; staple (E) 2-6), the MIC is 12.5 µg/mL (≈ 13.1 µM) with Staphylococcus aureus; 50 µg/mL (≈ 52.6 µM) with Salmonella typhimurium; 12.5 µg/mL (≈ 13.1 µM) with Shigella dysenteriae; 6.3 µg/mL (≈ 6.62 µM) in data set [2]; 50 µg/mL (≈ 52.6 µM) with Klebsiella pneumoniae; 25 µg/mL (≈ 26.3 µM) in the data set on Escherichia coli. The MIC in the data set with Pseudomonas aeruginosa worked out at 25 µg/mL (≈ 26.3 µM). The metabolised on Trypsin [3] is greater than 40%. Moreover, the hemolysis at 0.5 h, 24 µM in data set [1] turned out to be 0.5%. For the same compound, on Trypsin [4], the half-life was 1.33 h.

On to `CCCC[C@@H]1NC(=O)[C@H](CCN)NC(=O)[C@H](Cc2c[nH]c3ccccc23)NC(=O)[C@@](C)(NC(=O)[C@@H](N)CCN)CCC/C=C/CCC[C@@](C)(C(=O)N[C@@H](CCN)C(N)=O)NC1=O` (H-[Dab][S5]W[Dab][Nle][S5][Dab]-NH2; staple (E) 2-6), for which the MIC in the data set with Staphylococcus aureus is 25 µg/mL (≈ 28.8 µM); in the data set on Salmonella typhimurium it was 50 µg/mL (≈ 57.7 µM); with Shigella dysenteriae it was 25 µg/mL (≈ 28.8 µM); in data set [2] it was 12.5 µg/mL (≈ 14.4 µM); in the data set on Klebsiella pneumoniae, 50 µg/mL (≈ 57.7 µM); in the data set with Escherichia coli, 25 µg/mL (≈ 28.8 µM). In the data set with Pseudomonas aeruginosa, the MIC worked out at 50 µg/mL (≈ 57.7 µM). Moreover, the hemolysis at 0.5 h, 24 µM in data set [1] worked out at 0.1%. Further, the half-life at Trypsin [4] stood at 4.82 h. Further, at Trypsin [5], the metabolised was found to be 11%.

Regarding `CCCC[C@@H]1NC(=O)[C@H](CN)NC(=O)[C@H](Cc2c[nH]c3ccccc23)NC(=O)[C@@](C)(NC(=O)[C@@H](N)CN)CCC/C=C/CCC[C@@](C)(C(=O)N[C@@H](CN)C(N)=O)NC1=O` (H-[Dap][S5]W[Dap][Nle][S5][Dap]-NH2; staple (E) 2-6), the MIC with Staphylococcus aureus is 12.5 µg/mL (≈ 15.2 µM); in the data set on Salmonella typhimurium, 50 µg/mL (≈ 60.6 µM); with Shigella dysenteriae, 25 µg/mL (≈ 30.3 µM); in data set [2], 25 µg/mL (≈ 30.3 µM); in the data set with Klebsiella pneumoniae, 50 µg/mL (≈ 60.6 µM); in the data set on Escherichia coli, 25 µg/mL (≈ 30.3 µM). The MIC in the data set with Pseudomonas aeruginosa came out at 50 µg/mL (≈ 60.6 µM). In addition, at Trypsin [6], the Stability is on record as greater than 90%. The hemolysis at 0.5 h, 24 µM in data set [1] amounted to 0.2%. Further, on Trypsin [4], the half-life was 6.38 h.

Turning to `CCCC[C@@H]1NC(=O)[C@H](CCCN)NC(=O)[C@H](Cc2c[nH]c3ccccc23)NC(=O)[C@@](C)(NC(=O)[C@@H](N)CCCN)CCC/C=C/CCC[C@@](C)(C(=O)N[C@@H](CCCN)C(N)=O)NC1=O` (H-[Orn][S5]W[Orn][Nle][S5][Orn]-NH2; staple (E) 2-6), the MIC in the data set on Staphylococcus aureus worked out at 12.5 µg/mL (≈ 13.7 µM); in the data set on Salmonella typhimurium, 25 µg/mL (≈ 27.5 µM); in the data set with Shigella dysenteriae it was 12.5 µg/mL (≈ 13.7 µM); in data set [2], 6.3 µg/mL (≈ 6.93 µM); in the data set with Klebsiella pneumoniae, 37.5 µg/mL (≈ 41.2 µM); in the data set on Escherichia coli, 25 µg/mL (≈ 27.5 µM). Also, the MIC with Pseudomonas aeruginosa amounted to 18.8 µg/mL (≈ 20.7 µM). Besides, in data set [1], the hemolysis at 0.5 h, 24 µM was 0.4%. On Trypsin [4], the half-life came to 4.3 h. At Trypsin [5], the metabolised turned out to be 11%.
